Earlier results in article PMC5520971 (Organic & biomolecular chemistry, 2017).

Assays:
[1] = test system: hepatocellular carcinoma cells; settings: ref [18]
[2] = test system: hepatocellular carcinoma cells; settings: ref [18]; remark: listed apart in the source

## CC1=C(/C=C/C(C)=C/C=C/C(C)=C/C(=O)O)C(C)(C)CCC1 [all-trans retinoic acid]
[1]
  growth of hepatocellular carcinoma cells in vitro: selectively inhibited the growth
[2]
  growth of hepatocellular carcinoma cells in a mouse xenograft model: selectively inhibited the growth
